In test [1] the target is T1, human α4β2 nAChRs (Homo sapiens, UniProt P17787+P43681).
T1 construct: expressed in transfected cells
As to the kind of experiment: 86Rb+ efflux assay in cells expressing human α4β2 nAChRs. In kind it is cell-based. The settings on record: for pIC50: desensitization, 10 min pre-treatment before 100 μM (−)-nicotine; for α4β2 Emax: efficacy compared to 100 μM (−)-nicotine. As for the experimental part: (§1) The functional properties of the ligands were determined by ^86Rb^| efflux assays in cells expressing α3β4 and α4β2 nAChR subtypes. The functional activity of each ligand was measured for its agonism, antagonism and desensitization ability. Agonist activity for each of the ligands was tested at eight different concentrations. […] The full concentration-effect curves generated potency (EC50) and efficacy (Emax) of each ligand. […] Each ligand was tested for antagonist activity at eight concentrations. The potency (IC50(0′)) of each ligand as an antagonist was derived from the full concentration-effect curves. […] Although ^86Rb^+ efflux assays are mainly used to determine functional properties, whole cell current measurements were also used to verify the key experiments.
(§2) In Vitro Effects on nAChR Function. […] Their agonist activities were assessed by measuring stimulated ^86Rb^+ efflux from stably transfected cells, either expressing human α4β2 nAChRs or rat α3β4 receptors.
(§3) The cell lines expressing defined rat nAChR subtypes were established previously by stably transfecting HEK 293 cells with rat nAChR subunit genes. The cell line expressing human α4β2 nAChRs, YXα4β2H1, was established recently. These cell lines were maintained in minimum essential medium (MEM) supplemented with 10% fetal bovine serum, 100 units/mL penicillin G, […] streptomycin and selective antibiotics at 37° C. with 5% CO2 in a humidified incubator. Fetal bovine scrum was provided by Gemini Bio-Products (Woodland, Calif.). Tissue culture medium and antibiotics were obtained from Invitrogen Corporation (Carlsbad, Calif.), unless otherwise stated.
(§4) Functional properties of compounds at nAChRs expressed in the transfected cells were measured using ^86Rb^+ efflux assays as described previously. In brief, cells expressing human α4β2 or rat α3β4 nAChRs were plated into 24-well plates coated with poly-D-lysine. The plated cells were grown at 37° C. for 18 to 24 hour to reach 85-95% confluence. The cells were then incubated in growth medium (0.5 mL/well) containing ^86Rb^+ (2 μCi/mL) for 4 hour at 37° C. The loading mixture was then aspirated, and the cells were washed four times with 1 mL buffer (15 mM HEPES, 140 mM NaCl, 2 mM KCl, 1 mM MgSO4, 1.8 mM CaCl2, 11 mM Glucose, pH 7.4). One mL of buffer with or without compounds to be tested was then added to each well. After incubation for 2 min, the assay buffer was collected for measurements of ^86R^+ released from the cells. Cells were then lysed by adding 1 mL of 100 mM NaOH to each well, and the lysate was collected for determination of the amount of ^86Rb^+ that was in the cells at the end of the efflux assay. Radioactivity of assay samples and lysates was measured by liquid scintillation counting. Total loading (cpm) was calculated as the sum of the assay sample and the lysate of each well. The amount of ^86Rb^+ efflux was expressed as a percentage of ^86Rb^| loaded. […] For obtaining EC50 and Emax values, stimulation curves were constructed in which 8 different concentrations of a ligand were included in the assay. […] EC50, Emax and IC50(10′) values were determined by nonlinear least-squares regression analyses (GraphPad, San Diego, Calif.).

In test [2] the target is T2, α7 nAChR (Rattus norvegicus, UniProt Q05941).
T2 construct: expressed in transfected cells; host or cells: HEK 293
Briefly: biochemical. It counts as binding. The settings on record: competition against [3H]-epibatidine. The text has this:
(§5) Pharmacological Properties. We measured the in vitro binding affinities of the ligands for defined receptor subtypes (α2β2, α2β4, α3β2, α3β4, α4β2, α4β4, α6β2, α6β4, and α7) expressed in stably transfected cell lines. […] Rat forebrain homogenates were included to allow comparison between the heterologous and native α4β2 and α7 nAChRs.
(§6) To determine selectivities of these compounds in binding assays among the three predominant nAChR subtypes, α3β4, α4β2, and α7, the ratios of Ki values (α3β4/α4β2 and α7/α4β2) were determined.
The cell lines expressing defined rat nAChR subtypes were established previously by stably transfecting HEK 293 cells with rat nAChR subunit genes. The cell line expressing human α4β2 nAChRs, YXα4β2H1, was established recently. These cell lines were maintained in minimum essential medium (MEM) supplemented with 10% fetal bovine serum, 100 units/mL penicillin G, […] and selective antibiotics at 37° C. with 5% CO2 in a humidified incubator. […]
Briefly, cultured cells at >80% confluence were removed from their flasks (80 cm^2) with a disposable cell scraper and placed in 10 mL of 50 mM Tris⋅HCl buffer (pH 7.4, 4° C.). […] The filter-retained radioactivity was measured by liquid scintillation counting. […] Data from competition binding assays were analyzed using Prism 5 (GraphPad Software, San Diego, Calif.).

Test [3] concerns the target T3, α4β2 nAChR (Rattus norvegicus, UniProt P09483+P12390).
T3 construct: expressed in transfected cells; host or cells: HEK 293
As to the kind of experiment: [3H]-epibatidine competition binding, α4β2 nAChR in stably transfected HEK 293 cells. As to conditions: competition against [3H]-epibatidine.
From the text: as §5, §6, §3
(§7) Briefly, cultured cells at >80% confluence were removed from their flasks (80 cm^2) with a disposable cell scraper and placed in 10 mL of 50 mM Tris⋅HCl buffer (pH 7.4, 4° C.). The cell suspension was centrifuged at 10,000×g for 5 min and the pellet was collected. The cell pellet was then homogenized in 10 mL buffer with a polytron homogenizer and centrifuged at 36,000 g for 10 min at 4° C. The membrane pellet was resuspended in fresh buffer, and aliquots of the membrane preparation were used for binding assays. […] Bound and free ligands were separated by vacuum filtration through Whatman GF/C filters treated with 0.5% polyethylenimine. The filter-retained radioactivity was measured by liquid scintillation counting. Specific binding was defined as the difference between total binding and nonspecific binding. Data from competition binding assays were analyzed using Prism 5 (GraphPad Software, San Diego, Calif.).

Test [4] concerns the target T4, α3β4 nAChR (Rattus norvegicus, UniProt P04757+P12392).
T4 construct: expressed in transfected cells; host or cells: HEK 293
As to the kind of experiment: [3H]-epibatidine competition binding, α3β4 nAChR in stably transfected HEK 293 cells. As to conditions: competition against [3H]-epibatidine.
From the text: as §5, §6, §3, §7

The target of test [5] is T5, rat α3β4 nAChRs (Rattus norvegicus, UniProt P04757+P12392).
T5 construct: expressed in transfected cells; host or cells: HEK 293
As to the kind of experiment: 86Rb+ efflux assay in cells expressing rat α3β4 nAChRs. It counts as cell-based. The settings on record: for α3β4 Emax: efficacy compared to 100 μM (−)-nicotine; for Emax: read-out: α3β4 Emax. As for the experimental part:
as §1, §2, §3, §4

[6] abbreviates: agonist activity, stimulated 86Rb+ efflux, read-out: α3β4 EC50.

pEC50, pIC50, pKi: −log10 of the molar value. Like-named read-outs stand apart in the source and are kept apart here.

The Emax is the maximal effect, on the per cent scale that the assay sets. One may read the pKi as −log10 of the Ki, conventionally taken in molar units. The term pEC50 denotes the negative decadic logarithm of the EC50, by convention in mol/L. Broadly, the pIC50 is the negative decadic logarithm of the IC50, by convention in mol/L.

For `CN1CCCC1c1cccnc1` (single isomer, unassigned; (-)) [(−)-Nicotine], in test [1], the “agonist activity at the α4β2 nAChRs (in words)” value is recorded as “full agonist activities”. Moreover, the Emax in test [1] (read-out: α4β2 Emax) was 100%.

Take `OCCCCC#Cc1cncc(OC[C@@H]2CCN2)c1` [Sazetidine-A]: the pKi is 6.17 in test [2], 10.47 in test [3] and 8.19 in test [4]. The pEC50 in test [5] (setting [6]) is 6.14; in test [1] (agonist activity, stimulated 86Rb+ efflux, read-out: α4β2 EC50) it was 7.62. Also, the pIC50 in test [5] (desensitization, 10 min pre-treatment before 100 μM (−)-nicotine) is 5.89; in test [1], 7.96. The “α3β4 Emax” value in test [5] was 96%. For the same compound, the “α4β2 Emax” value in test [1] is recorded as 40%.

For `c1cnc2cc3c(cc2n1)[C@@H]1CNC[C@H]3C1` [Varenicline], the pKi was 9.85 in test [3] and 7.57 in test [4]. Besides, the negative-log EC50 (pEC50) in test [5] (setting [6]) was 5.49. Further, the “α3β4 Emax” value in test [5] was 82%.

For `CCCCC#Cc1cnc(C)c(OC[C@@H]2CCN2)c1` [YL-1-127, (S)-3-(azetidin-2-ylmethoxy)-5-(hex-1-ynyl)-2-methylpyridine], the pKi in test [3] is 7.85. The same compound had a pKi in test [4] of 6.24. Further, in test [5], the pEC50 is 4.96 and the Emax was 10%. Further, in test [5] (stimulated 86Rb+ efflux), the “agonist activity at the α3β4 nAChRs (in words)” value is reported as “did not show detectable agonist activity”. Also, the pIC50 in test [1] was 6.59.

As to `FCCCCC#Cc1cnc(F)c(OC[C@@H]2CCN2)c1` [YL-2-203, (S)-3-(azetidin-2-ylmethoxy)-2-fluoro-5-(6-fluorohex-1-ynyl)pyridine di-trifluoroacetic acid], the pKi was 4.96 in test [2], 9.70 in test [3] and 7.03 in test [4]. Moreover, the pEC50 in test [5] was 5.20; in test [1], 7.46. For the same compound, the maximum response (Emax) is 26% in test [5] and under 33% in test [1] (read-out: α4β2 Emax, efficacy compared to 100 μM (−)-nicotine). The “agonist activity at the α3β4 nAChRs (in words)” value in test [5] (stimulated 86Rb+ efflux) was “did not show detectable agonist activity”. Besides, the “α4β2 Emax” value in test [1] (di-trifluoroacetic acid) stood at 33%.

Values taken from patent publication US10407406B2, “2-halo-5-alkynyl-pyridyl nicotinic ligands” (Georgetown University, priority 2013, dated 2019).
